The values that follow come from ChEMBL document CHEMBL4376834, “Discovery of 4H-Chromen-4-one Derivatives as a New Class of Selective Rho Kinase (ROCK) Inhibitors, which Showed Potent Activity in ex Vivo Diabetic Retinopathy Models” (J Med Chem, 2019).

The nature of test [1]: Inhibition of human PKA using Kemptide as substrate incubated for 40 mins in presence of [gamma-33P]ATP by radiometric scintillation counting analysis.
Test [2] concerns the target Rho-associated protein kinase 1 (Homo sapiens, UniProt Q13464). Briefly: Inhibition of recombinant human ROCK1 (17 to 535 residues) using […] as substrate incubated for 40 mins in presence of [gamma-33P]ATP and 10 uM ATP by radiometric scintillation counting analysis.
Test [3] concerns the target Rho-associated protein kinase 2 (Homo sapiens, UniProt O75116). Briefly: Inhibition of recombinant human ROCK2 (11 to 552 residues) using KEAKEKRQEQIAKR as substrate incubated for 40 mins in presence of [gamma-33P]ATP and 10 uM ATP by radiometric scintillation counting analysis.

By IC50 is commonly meant the concentration that inhibits the measured activity by half.

Sequence of Rho-associated protein kinase 1 (Q13464 whole entry, the tested form may be a part): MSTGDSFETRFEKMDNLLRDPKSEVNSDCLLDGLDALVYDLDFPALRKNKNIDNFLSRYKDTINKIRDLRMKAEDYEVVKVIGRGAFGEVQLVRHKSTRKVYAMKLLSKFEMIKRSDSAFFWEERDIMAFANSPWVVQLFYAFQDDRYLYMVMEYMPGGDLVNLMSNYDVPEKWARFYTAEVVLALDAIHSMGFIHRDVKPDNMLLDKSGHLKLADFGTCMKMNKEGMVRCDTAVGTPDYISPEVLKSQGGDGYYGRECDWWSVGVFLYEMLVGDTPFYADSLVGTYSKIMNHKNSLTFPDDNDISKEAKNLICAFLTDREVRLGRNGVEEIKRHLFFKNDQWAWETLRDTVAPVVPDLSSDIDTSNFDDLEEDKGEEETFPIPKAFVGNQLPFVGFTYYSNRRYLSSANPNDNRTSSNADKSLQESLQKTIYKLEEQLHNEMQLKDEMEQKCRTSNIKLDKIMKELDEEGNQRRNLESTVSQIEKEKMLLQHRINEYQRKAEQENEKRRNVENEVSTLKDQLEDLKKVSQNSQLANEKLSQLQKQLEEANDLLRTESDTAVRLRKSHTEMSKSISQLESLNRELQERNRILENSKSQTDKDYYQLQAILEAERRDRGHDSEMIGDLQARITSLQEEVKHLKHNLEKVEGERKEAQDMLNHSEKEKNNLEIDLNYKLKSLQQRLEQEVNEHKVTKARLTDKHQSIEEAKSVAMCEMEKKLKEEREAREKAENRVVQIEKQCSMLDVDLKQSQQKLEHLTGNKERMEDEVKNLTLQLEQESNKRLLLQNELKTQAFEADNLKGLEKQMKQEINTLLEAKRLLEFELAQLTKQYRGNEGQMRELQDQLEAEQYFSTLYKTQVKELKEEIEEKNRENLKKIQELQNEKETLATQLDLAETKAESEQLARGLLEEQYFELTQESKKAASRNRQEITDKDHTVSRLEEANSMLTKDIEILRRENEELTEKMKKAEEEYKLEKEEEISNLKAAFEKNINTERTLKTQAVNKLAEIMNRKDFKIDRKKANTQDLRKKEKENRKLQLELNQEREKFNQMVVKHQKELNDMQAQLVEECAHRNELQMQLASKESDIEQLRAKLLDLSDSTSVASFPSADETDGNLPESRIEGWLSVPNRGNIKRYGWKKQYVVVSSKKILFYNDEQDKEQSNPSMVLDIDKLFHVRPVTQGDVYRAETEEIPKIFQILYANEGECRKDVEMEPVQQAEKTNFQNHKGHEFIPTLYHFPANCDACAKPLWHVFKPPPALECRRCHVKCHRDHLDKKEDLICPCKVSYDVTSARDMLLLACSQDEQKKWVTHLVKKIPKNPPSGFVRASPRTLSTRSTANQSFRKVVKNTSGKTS
Sequence of Rho-associated protein kinase 2 (O75116 whole entry, the tested form may be a part): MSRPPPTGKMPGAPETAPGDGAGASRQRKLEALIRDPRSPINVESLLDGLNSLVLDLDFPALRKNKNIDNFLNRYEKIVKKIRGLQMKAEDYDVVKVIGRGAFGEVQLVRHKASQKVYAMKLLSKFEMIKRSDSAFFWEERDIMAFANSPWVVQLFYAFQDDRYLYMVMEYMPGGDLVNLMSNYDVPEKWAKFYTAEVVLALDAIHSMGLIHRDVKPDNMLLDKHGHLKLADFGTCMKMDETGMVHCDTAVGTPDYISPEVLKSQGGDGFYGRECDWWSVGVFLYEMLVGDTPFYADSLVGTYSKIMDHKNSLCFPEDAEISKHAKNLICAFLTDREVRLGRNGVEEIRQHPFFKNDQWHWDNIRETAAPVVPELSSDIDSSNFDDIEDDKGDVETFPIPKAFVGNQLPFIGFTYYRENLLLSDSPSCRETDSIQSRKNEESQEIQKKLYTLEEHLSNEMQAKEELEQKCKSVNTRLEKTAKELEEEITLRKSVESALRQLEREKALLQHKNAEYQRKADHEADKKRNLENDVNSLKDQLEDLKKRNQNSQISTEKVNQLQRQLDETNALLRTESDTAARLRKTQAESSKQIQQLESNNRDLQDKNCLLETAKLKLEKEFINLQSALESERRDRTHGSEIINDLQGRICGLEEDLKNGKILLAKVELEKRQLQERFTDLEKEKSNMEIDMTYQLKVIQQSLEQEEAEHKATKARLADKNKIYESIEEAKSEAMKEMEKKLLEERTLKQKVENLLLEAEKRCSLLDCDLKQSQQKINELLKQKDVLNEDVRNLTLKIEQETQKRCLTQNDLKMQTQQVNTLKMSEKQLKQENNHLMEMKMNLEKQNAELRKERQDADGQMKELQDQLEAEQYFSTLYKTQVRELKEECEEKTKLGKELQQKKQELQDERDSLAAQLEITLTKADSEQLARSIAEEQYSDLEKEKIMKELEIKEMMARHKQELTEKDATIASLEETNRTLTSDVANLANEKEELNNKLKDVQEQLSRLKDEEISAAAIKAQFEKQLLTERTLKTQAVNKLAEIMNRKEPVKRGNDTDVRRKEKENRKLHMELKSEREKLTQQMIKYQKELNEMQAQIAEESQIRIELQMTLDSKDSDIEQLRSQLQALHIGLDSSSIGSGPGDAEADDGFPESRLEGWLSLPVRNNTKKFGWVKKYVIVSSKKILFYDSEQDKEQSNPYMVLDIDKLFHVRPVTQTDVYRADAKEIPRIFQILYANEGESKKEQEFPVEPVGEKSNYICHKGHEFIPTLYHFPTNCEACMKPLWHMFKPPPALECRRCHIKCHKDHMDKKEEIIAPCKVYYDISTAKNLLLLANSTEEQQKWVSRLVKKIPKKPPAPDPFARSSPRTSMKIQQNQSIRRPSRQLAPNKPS

On to `O=C(COc1ccc2c(=O)ccoc2c1)Nc1cccc(NC(=O)c2cccc([N+](=O)[O-])c2)c1`, for which the values for the IC50 in test [1], in test [2] and in test [3] were over 10 µM, 0.528 µM and 0.041 µM, respectively.

With `Nc1cccc(C(=O)Nc2cccc(NC(=O)COc3ccc4c(=O)ccoc4c3)c2)c1`, the figures for the IC50 in test [1], in test [2] and in test [3] were over 10 µM, 0.67 µM and 0.058 µM, respectively.

As to `O=C(COc1ccc2c(=O)ccoc2c1)Nc1cccc(NC(=O)c2cnc(C(F)(F)F)s2)c1`, the IC50 in test [1] is over 10 µM; in test [2], 0.16 µM; in test [3], 0.01 µM.

Consider `COc1ccc(C(=O)Nc2cccc(NC(=O)COc3ccc4c(=O)ccoc4c3)c2)cc1`, for which the IC50 in test [1] was over 10 µM; in test [2], 0.018 µM; in test [3], 0.007 µM.

Turning to `CC(=O)c1ccc(OCC(=O)Nc2cccc(NC(=O)c3ccc(N(C)C)cc3)c2)cc1F`, the figures for the IC50 in test [1], in test [2] and in test [3] were over 10 µM, 0.445 µM and 0.098 µM, respectively.

In the case of `CC(C)(C)c1cc(C(=O)Nc2cccc(NC(=O)COc3ccc4c(=O)ccoc4c3)c2)no1`, the IC50 in test [1] was over 10 µM; in test [2], 0.101 µM; in test [3], 0.005 µM.

On to `O=C(COc1ccc2c(=O)ccoc2c1)Nc1cccc(NC(=O)c2ccc(Br)cc2)c1`, for which the IC50 in test [1] is over 10 µM; in test [2], 0.303 µM; in test [3], 0.049 µM.

`CCCC(=O)Nc1cccc(NC(=O)COc2ccc3c(=O)ccoc3c2)c1`: the concentration for half-maximal inhibition (IC50) is over 10 µM in test [1], 1.43 µM in test [2] and 0.176 µM in test [3].

Turning to `N#Cc1ccc(C(=O)Nc2cccc(NC(=O)COc3ccc4c(=O)ccoc4c3)c2)cc1`, the IC50 in test [1] is over 10 µM; in test [2], 0.123 µM; in test [3], 0.015 µM.

Take `CCc1ccc(C(=O)Nc2cccc(NC(=O)COc3ccc4c(=O)ccoc4c3)c2)cc1`: the IC50 is over 10 µM in test [1], 0.235 µM in test [2] and 0.024 µM in test [3].

Consider `Cc1c(OCC(=O)Nc2cccc(NC(=O)c3ccc(N(C)C)cc3)c2)ccc2c(=O)ccoc12`, for which the values for the IC50 in test [1], in test [2] and in test [3] were over 10 µM, over 10 µM and 4.16 µM, respectively.

For `Cc1ccc(C(=O)Nc2cccc(NC(=O)COc3ccc4c(=O)ccoc4c3)c2)cc1`, the values for the IC50 in test [1], in test [2] and in test [3] were over 10 µM, 0.183 µM and 0.022 µM, respectively.

In the case of `COc1ccc(OCC(=O)Nc2cccc(NC(=O)c3ccc(N(C)C)cc3)c2)cc1F`, the IC50 in test [1] was over 10 µM; in test [2], 1.82 µM; in test [3], 0.652 µM.

In the case of `CN(C)c1ccc(C(=O)Nc2cccc(NC(=O)COc3ccc4occc(=O)c4c3)c2)cc1`, the IC50 in test [1], in test [2] and in test [3] was over 10 µM throughout.

Regarding `O=C(COc1ccc2c(=O)ccoc2c1)Nc1cccc(NC(=O)c2ccc([N+](=O)[O-])cc2)c1`, the IC50 in test [1] came to 9.35 µM; in test [2] it was 0.067 µM; in test [3], 0.015 µM.

With `Cc1nc(C(=O)Nc2cccc(NC(=O)COc3ccc4c(=O)ccoc4c3)c2)cs1`, the IC50 was over 10 µM in test [1], 0.473 µM in test [2] and 0.033 µM in test [3].

For the molecule `NCc1ccc(C(=O)Nc2cccc(NC(=O)COc3ccc4c(=O)ccoc4c3)c2)cc1`, the figures for the IC50 in test [1], in test [2] and in test [3] were over 10 µM, 0.532 µM and 0.066 µM, respectively.

Consider `CC(=O)Nc1cccc(NC(=O)COc2ccc3c(=O)ccoc3c2)c1`, for which the IC50 in test [1] was over 10 µM; in test [2] it was 2.5 µM; in test [3], 0.136 µM.

Turning to `Nc1ccc(C(=O)Nc2cccc(NC(=O)COc3ccc4c(=O)ccoc4c3)c2)cc1`, the IC50 in test [1] was over 10 µM; in test [2] it was 0.802 µM; in test [3], 0.083 µM.

On to `CN(C)c1ccc(C(=O)Nc2cccc(NC(=O)COc3ccc4c(c3)CCC(=O)N4)c2)cc1`, for which the IC50 in test [1] is over 10 µM; in test [2] it was over 10 µM; in test [3], 9.97 µM.

In the case of `CCOc1ccc(C(=O)Nc2cccc(NC(=O)COc3ccc4c(=O)ccoc4c3)c2)cc1`, the IC50 in test [1] was over 10 µM; in test [2], 0.017 µM; in test [3] it was 0.009 µM.

For `COc1ccc(OCC(=O)Nc2cccc(NC(=O)c3ccc(N(C)C)cc3)c2)cc1OC`, the IC50 in test [1], in test [2] and in test [3] was over 10 µM throughout.

Consider `Cc1cc(C(=O)Nc2cccc(NC(=O)COc3ccc4c(=O)ccoc4c3)c2)ccc1C(F)(F)F`, for which the results for the IC50 in test [1], in test [2] and in test [3] were over 10 µM, 0.46 µM and 0.043 µM, respectively.

As for `COC(=O)c1ccc(C(=O)Nc2cccc(NC(=O)COc3ccc4c(=O)ccoc4c3)c2)cc1`, the IC50 is over 10 µM in test [1], 0.072 µM in test [2] and 0.029 µM in test [3].

Regarding `COc1cc(OCC(=O)Nc2cccc(NC(=O)c3ccc(N(C)C)cc3)c2)ccc1C=O`, the figures for the IC50 in test [1], in test [2] and in test [3] were over 10 µM, 3.74 µM and 0.306 µM, respectively.

Turning to `O=C(COc1ccc2c(=O)ccoc2c1)Nc1cccc(NC(=O)c2ccc(OC(F)(F)F)cc2)c1`, the IC50 is over 10 µM in test [1], 0.869 µM in test [2] and 0.077 µM in test [3].

Turning to `CC(C)(C)c1ccc(C(=O)Nc2cccc(NC(=O)COc3ccc4c(=O)ccoc4c3)c2)cc1`, the results for the IC50 in test [1], in test [2] and in test [3] were over 10 µM, 0.165 µM and 0.034 µM, respectively.

For `CN(C)c1ccc(C(=O)Nc2cccc(NC(=O)COc3ccc4c(c3)OCCC4=O)c2)cc1`, the IC50 was over 10 µM in test [1], 0.144 µM in test [2] and 0.085 µM in test [3].

In the case of `Cc1cc(C(=O)Nc2cccc(NC(=O)COc3ccc4c(=O)ccoc4c3)c2)no1`, the IC50 in test [1] was over 10 µM; in test [2], 0.068 µM; in test [3], 0.005 µM.

Regarding `Cc1coc2cc(OCC(=O)Nc3cccc(NC(=O)c4ccc(N(C)C)cc4)c3)ccc2c1=O`, the IC50 in test [1] was over 10 µM; in test [2] it was over 10 µM; in test [3] it was 2.15 µM.

Turning to `CN(C)c1ccc(C(=O)Nc2cccc(NC(=O)COc3ccc4c(c3)OCO4)c2)cc1`, the IC50 in test [1], in test [2] and in test [3] was over 10 µM throughout.

For the molecule `CCCc1ccc(C(=O)Nc2cccc(NC(=O)COc3ccc4c(=O)ccoc4c3)c2)cc1`, the IC50 in test [1] is over 10 µM; in test [2] it was 0.143 µM; in test [3], 0.014 µM.

For `CN(C)c1ccc(C(=O)Nc2cccc(NC(=O)COc3ccc4c(c3)OCCO4)c2)cc1`, the IC50 in test [1], in test [2] and in test [3] was over 10 µM in each case.

With `CN(C)c1ccc(C(=O)Nc2cccc(NC(=O)COc3ccc4c(c3)NC(=O)CC4)c2)cc1`, the 50% inhibitory concentration (IC50) in test [1] was over 10 µM; in test [2], over 10 µM; in test [3] it was 3.14 µM.

For the molecule `COc1cccc(OCC(=O)Nc2cccc(NC(=O)c3ccc(N(C)C)cc3)c2)c1`, the IC50 in test [1] was over 10 µM; in test [2], over 10 µM; in test [3], 5.74 µM.

As for `O=C(COc1ccc2c(=O)ccoc2c1)Nc1cccc(NC(=O)c2ccccc2)c1`, the IC50 in test [1] is 3.25 µM; in test [2], 0.12 µM; in test [3] it was 0.016 µM.

For the molecule `O=C(COc1ccc2c(=O)ccoc2c1)Nc1cccc(NC(=O)c2ccc(F)cc2)c1`, the IC50 in test [1] is over 10 µM; in test [2] it was 0.129 µM; in test [3], 0.054 µM.
